Source: PMC9838390, “Discovery and biosynthesis of karnamicins as angiotensin converting enzyme inhibitors” (Nature Communications, 2023)
“And” between values parts separate entries of the source, which are not always exact repeats. Equal entries are not always repeated.

Columns and labels:
Type in all cases: biochemical, L. rhizosphaerae NEAU-A2
KnmB2 [1] = test: NADPH oxidation of KnmB2 and variants (340 nm)
Procedure: (§1) Hydrogen peroxide formation assay and NADPH oxidation
The hydrogen peroxide formed from KnmB1, KnmB2 and their variants were measured using the Hydrogen Peroxide Assay Kit (Beyotime Industrial Co. Ltd, Shanghai, China)4-5. 5–100 µL of enzyme reaction mixture was added to 100 µL of working reagent (S0038-1). The mixture was incubated for 30 min at 25 °C, at which time the absorbance at 560 nm was measured by NanoDrop 2000c (Fisher Scientific). The level of H2O2 was calculated according to a standard concentration curve from standard […]
(§2) NADPH detection was carried out in the cuvette by NanoDrop 2000c (Fisher Scientific). NADPH signal at 340 nm was monitored in time using 6220 M–1 cm–1 as […]
(§3) Spectral data for new compounds […]
Reaction conditions: 50 mM Tris-HCl buffer (pH 7.5),
0.15 mM NADPH, and 2 μM KnmB1 or KnmB2. […]
μM KnmB1 or variants, or 0.1 mM substrate 24/32/36. (h) NADPH oxidation of KnmB2 and variants. (i) NADPH oxidation of KnmB2 and variants in the presence 24 or 32. (j) H2O2 generation for KnmB2 and variants in the presence 24 or 32. Reaction conditions (h-j) for KnmB2 and their variants: 50 mM Tris-HCl buffer (pH 7.5), 0.15 mM NADPH, 2 μM KnmB2 or variants, or 0.1 mM substrate 24/32. Values are the means ± SD of n = 3 independent experiments, except for KnmB2+24 (T = 40 min), KnmB2-N219D+24 (T = 4 min), KnmB2-Y215F+24 (T= 1 min and 3 min) in i and j, and KnmB2+32 (T= 8 min) in j (n = 2). Source data are provided as a Source Data file. […]

KnmB2 [2] = test: Hydrogen peroxide formation assay of KnmB2 and variants
Procedure: as §1
The hydrogen peroxide formed from KnmB1, KnmB2 and their variants were measured using the Hydrogen Peroxide Assay Kit (Beyotime Industrial Co. Ltd, Shanghai, China)4-5. 5–100 µL of enzyme reaction mixture was added to 100 µL of working reagent (S0038-1). The mixture was incubated for 30 min at 25 °C, at which time the absorbance at 560 nm was measured by NanoDrop 2000c (Fisher Scientific). […]
as §3
Supplementary Figure 131. H2O2 generation and NADPH oxidation for KnmB2, KnmB1 and their variants. (a) Hydrogen peroxide formation of KnmB2 and variants. […]
(1 picture or pasted object on this page, not shown here) […]
H2O2 generation for KnmB2 and variants in the presence 24 or 32. Reaction conditions (h-j) for KnmB2 and their variants: 50 mM Tris-HCl buffer (pH 7.5), 0.15 mM NADPH, 2 μM KnmB2 or variants, or 0.1 mM substrate 24/32. Values are the means ± SD of n = 3 independent experiments, except for KnmB2+24 (T = 40 min), KnmB2-N219D+24 (T = 4 min), KnmB2-Y215F+24 (T= 1 min and 3 min) in i and j, and KnmB2+32 (T= 8 min) in j (n = 2). Source data are provided as a Source Data file. […]

KnmB1 = test: NADPH oxidation of KnmB1 and variants (340 nm); conditions: KnmB1 + compound
Procedure: Hydrogen peroxide formation assay and NADPH oxidation […]
as §2, §3
Reaction conditions: 50 mM Tris-HCl buffer (pH 7.5), 0.15 mM NADPH, and 2 μM KnmB1 or KnmB2. (e) NADPH oxidation of KnmB1 and variants. (f) NADPH oxidation of KnmB1 in the presence 24/32/36. (g) NADPH oxidation of KnmB1 and variants in the presence 24. Reaction conditions (e-g) for KnmB1 and their variants: 50 mM Tris-HCl buffer (pH 7.5), 0.15 mM NADPH, and 6 μM KnmB1 or variants, or 0.1 mM substrate 24/32/36. […]
2 μM KnmB2 or variants, or 0.1 mM substrate 24/32. […]
Source data are provided as a Source Data file. […]

Which results are given for `COc1cc(C(N)=O)nc(-c2csc(CCCCC(C)C)n2)c1` [Compound 32]?
stimulation of the reaction of KnmB2 with NADPH (KnmB2 [1]; 0.15 mM NADPH, 2 μM KnmB2, 0.1 mM compound (Fig. S131i, j)): could dramatically stimulate the reaction of KnmB2 with NADPH; NADPH oxidation, average value (KnmB2 [1]; KnmB2+32, Time 0): 0.0000 µM; NADPH oxidation, average value (KnmB2 [1]; KnmB2+32, Time 1): 36.1736 µM; NADPH oxidation, average value (KnmB2 [1]; KnmB2+32, Time 2): 67.6313 µM; NADPH oxidation, average value (KnmB2 [1]; KnmB2+32, Time 3): 89.9250 µM; NADPH oxidation, average value (KnmB2 [1]; KnmB2+32, Time 4): 104.0193 µM; NADPH oxidation, average value (KnmB2 [1]; KnmB2+32, Time 5): 113.9871 µM; NADPH oxidation, average value (KnmB2 [1]; KnmB2+32, Time 8): 126.0986 µM; NADPH oxidation, average value (KnmB2 [1]; KnmB2+32, Time 10): 129.3140 µM; NADPH oxidation, average value (KnmB2 [1]; KnmB2+32, Time 15): 133.2797 µM; NADPH oxidation, average value (KnmB2 [1]; KnmB2+32, Time 20): 134.8875 µM; NADPH oxidation, average value (KnmB2 [1]; KnmB2+32, Time 30): 135.6377 µM; NADPH oxidation, average value (KnmB2 [1]; KnmB2+32, Time 60): 137.7278 µM; hydrogen peroxide formation of KnmB2 (absorbance UV λ=560 nm), average value (KnmB2 [2]; Fig. S131a, 1 mM NADPH, 16 μM KnmB2, 0.1 mM compound, 30 °C, 3 h, average of 3): 0.3257; H2O2 generation, average value (KnmB2 [2]; KnmB2+32, Time 0): 0.0000 µM; H2O2 generation, average value (KnmB2 [2]; KnmB2+32, Time 1): 27.0071 µM; H2O2 generation, average value (KnmB2 [2]; KnmB2+32, Time 2): 45.8172 µM; H2O2 generation, average value (KnmB2 [2]; KnmB2+32, Time 3): 50.8645 µM; H2O2 generation, average value (KnmB2 [2]; KnmB2+32, Time 4): 59.9799 µM; H2O2 generation, average value (KnmB2 [2]; KnmB2+32, Time 5): 63.9929 µM; H2O2 generation, average value (KnmB2 [2]; KnmB2+32, Time 8): 70.1572 µM; H2O2 generation, average value (KnmB2 [2]; KnmB2+32, Time 10): 68.2817 µM; H2O2 generation, average value (KnmB2 [2]; KnmB2+32, Time 15): 68.3920 µM; H2O2 generation, average value (KnmB2 [2]; KnmB2+32, Time 20): 65.9649 µM; H2O2 generation, average value (KnmB2 [2]; KnmB2+32, Time 30): 69.8125 µM; H2O2 generation, average value (KnmB2 [2]; KnmB2+32, Time 60): 64.9169 µM; NADPH oxidation of KnmB1 in the presence of compound (replicates 1, 2, 3) (KnmB1; Time 0): 0.0000 µM; NADPH oxidation of KnmB1 in the presence of compound, average value (KnmB1; Time 0): 0.0000 µM; NADPH oxidation of KnmB1 in the presence of compound (replicates 1, 2, 3) (KnmB1; Time 1): 1.5273 µM and 2.1061 µM and 2.0418 µM; NADPH oxidation of KnmB1 in the presence of compound, average value (KnmB1; Time 1): 1.8918 µM; NADPH oxidation of KnmB1 in the presence of compound (replicates 1, 2, 3) (KnmB1; Time 2): 1.8328 µM and 3.1029 µM and 1.2701 µM; NADPH oxidation of KnmB1 in the presence of compound, average value (KnmB1; Time 2): 2.0686 µM; NADPH oxidation of KnmB1 in the presence of compound (replicates 1, 2, 3) (KnmB1; Time 3): 2.5241 µM and 3.7621 µM and 2.2026 µM; NADPH oxidation of KnmB1 in the presence of compound, average value (KnmB1; Time 3): 2.8296 µM; NADPH oxidation of KnmB1 in the presence of compound (replicates 1, 2, 3) (KnmB1; Time 4): 3.7781 µM and 5.3698 µM and 2.4759 µM; NADPH oxidation of KnmB1 in the presence of compound, average value (KnmB1; Time 4): 3.8746 µM; NADPH oxidation of KnmB1 in the presence of compound (replicates 1, 2, 3) (KnmB1; Time 5): 4.0032 µM and 5.5627 µM and 2.3955 µM; NADPH oxidation of KnmB1 in the presence of compound, average value (KnmB1; Time 5): 3.9871 µM; NADPH oxidation of KnmB1 in the presence of compound (replicates 1, 2, 3) (KnmB1; Time 8): 4.4212 µM and 7.7974 µM and 3.6978 µM; NADPH oxidation of KnmB1 in the presence of compound, average value (KnmB1; Time 8): 5.3055 µM; NADPH oxidation of KnmB1 in the presence of compound (replicates 1, 2, 3) (KnmB1; Time 10): 5.8360 µM and 8.6174 µM and 5.4019 µM; NADPH oxidation of KnmB1 in the presence of compound, average value (KnmB1; Time 10): 6.6184 µM; NADPH oxidation of KnmB1 in the presence of compound (replicates 1, 2, 3) (KnmB1; Time 15): 7.9100 µM and 11.8971 µM and 10.3055 µM; NADPH oxidation of KnmB1 in the presence of compound, average value (KnmB1; Time 15): 10.0375 µM; NADPH oxidation of KnmB1 in the presence of compound (replicates 1, 2, 3) (KnmB1; Time 20): 9.0836 µM and 14.3891 µM and 16.4148 µM; NADPH oxidation of KnmB1 in the presence of compound, average value (KnmB1; Time 20): 13.2958 µM; NADPH oxidation of KnmB1 in the presence of compound (replicates 1, 2, 3) (KnmB1; Time 30): 13.7942 µM and 22.5402 µM and 24.0193 µM; NADPH oxidation of KnmB1 in the presence of compound, average value (KnmB1; Time 30): 20.1179 µM; NADPH oxidation of KnmB1 in the presence of compound (replicates 1, 2, 3) (KnmB1; Time 40): 17.5724 µM and 28.7299 µM and 26.9936 µM; NADPH oxidation of KnmB1 in the presence of compound, average value (KnmB1; Time 40): 24.4319 µM; NADPH oxidation of KnmB1 in the presence of compound (replicates 1, 2, 3) (KnmB1; Time 60): 24.1801 µM and 36.1576 µM and 36.4791 µM; NADPH oxidation of KnmB1 in the presence of compound, average value (KnmB1; Time 60): 32.2722 µM
